{
  "source": "patent US12721816B2",
  "about": "“Polymer-encapsulated drug particles” (Tonic Medical, Inc., priority 2020, dated 2026)",
  "key": {"[1]": {"experiment": "stability under ethylene oxide sterilization, heating, and aging with paclitaxel", "settings": "formulated with paclitaxel"}, "[2]": {"settings": "urethral stricture patients; 1 hour, 3 hours, 5 hours, 10 hours, 24 hours, and 5 days", "experimental": "Clinical subjects were evaluated at 14, 30, 90, 180, 365 days, and 2 years after the index procedure. Evaluations included analysis of stricture free rate, uroflowmetry including Qmax, and PVR."}, "[3]": {"settings": "BSA added; cited from earlier work"}, "albumin": {"biological_target": "albumin (Homo sapiens, UniProt P02768)", "sequence (P02768 25-609)": "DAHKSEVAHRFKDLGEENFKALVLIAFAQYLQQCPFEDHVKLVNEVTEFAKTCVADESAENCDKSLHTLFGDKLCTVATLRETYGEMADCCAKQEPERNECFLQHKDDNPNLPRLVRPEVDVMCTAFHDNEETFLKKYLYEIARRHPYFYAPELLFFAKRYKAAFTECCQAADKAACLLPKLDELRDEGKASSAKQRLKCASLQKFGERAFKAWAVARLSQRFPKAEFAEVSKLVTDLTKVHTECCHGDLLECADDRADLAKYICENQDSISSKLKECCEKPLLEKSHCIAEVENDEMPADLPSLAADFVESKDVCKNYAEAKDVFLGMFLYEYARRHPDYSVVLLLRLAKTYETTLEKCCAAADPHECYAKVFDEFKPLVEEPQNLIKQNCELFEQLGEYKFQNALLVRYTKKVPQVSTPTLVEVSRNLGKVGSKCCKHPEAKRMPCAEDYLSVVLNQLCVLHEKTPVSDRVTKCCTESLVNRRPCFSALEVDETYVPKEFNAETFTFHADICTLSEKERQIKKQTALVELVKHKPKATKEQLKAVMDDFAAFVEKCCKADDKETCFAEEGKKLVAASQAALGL", "settings": "cited from earlier work"}},
  "data": [
    {"smiles": "O=C(O)c1ccccc1", "note": "[benzoic acid]", "values": [
      {"measurement": "stability under ethylene oxide sterilization, heating, and aging process", "setting": "[1]", "value": "not stable"}
    ]},
    {"smiles": "CC(=O)O[C@H]1C(=O)[C@@]2(C)[C@H]([C@H](OC(=O)c3ccccc3)[C@]3(O)C[C@H](OC(=O)[C@H](O)[C@@H](NC(=O)c4ccccc4)c4ccccc4)C(C)=C1C3(C)C)[C@]1(OC(C)=O)CO[C@@H]1C[C@@H]2O", "note": "[paclitaxel]", "values": [
      {"measurement": "Human plasma paclitaxel concentration on average", "setting": "[2]", "value": "below the level of quantification"},
      {"measurement": "solubility increase in PBS with the addition of BSA", "setting": "[3]", "value": "over 20 fold"}
    ]},
    {"smiles": "CO[C@H]1C[C@@H]2CC[C@@H](C)[C@@](O)(O2)C(=O)C(=O)N2CCCC[C@H]2C(=O)O[C@H]([C@H](C)C[C@@H]2CC[C@@H](O)[C@H](OC)C2)CC(=O)[C@H](C)/C=C(\\C)[C@@H](O)[C@@H](OC)C(=O)[C@H](C)C[C@H](C)/C=C/C=C/C=C/1C", "note": "[sirolimus]", "values": [
      {"measurement": "share of protein binding to albumin", "setting": "albumin; bound primarily to albumin", "value": 97, "unit": "%"},
      {"measurement": "protein bound", "setting": "albumin", "value": 92, "unit": "%"}
    ]}
  ]
}
